In patent EP4722212A1, “NOVEL COMPOUND FOR INHIBITING PROTEIN KINASES AND PHARMACEUTICAL COMPOSITION COMPRISING SAME” (Magicbullettherapeutics Co., Ltd., priority 2023, dated 2024):
Like-named read-outs stand apart in the source and are kept apart here.

How the values were obtained:
Test in all cases: Kinase panel
Format in all cases: biochemical
DDR2 = DDR2 (Homo sapiens, UniProt Q16832); settings: DDR2, 1 µM; read-out: residual enzyme activity
Outline: (§1)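 Single-point screen at 1 µM in a biochemical kinase panel; readout is % residual enzyme activity; hit cut-off ≤40% remaining (≥60% inhibited).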

PKCB2 = PKCB2 (Homo sapiens, UniProt P05771); settings: PKCb2, 1 µM; read-out: residual enzyme activity
Outline: as §1

KSR2 = KSR2 (Homo sapiens, UniProt Q6VAB6); settings: KSR2, 1 µM; read-out: residual enzyme activity
Outline: as §1

PKCA = PKCA (Homo sapiens, UniProt P17252); settings: read-out: residual enzyme activity
Outline: as §1

AURORA B = AURORA B (Homo sapiens, UniProt Q96GD4); settings: read-out: residual enzyme activity
Outline: as §1

BTK = BTK (Homo sapiens, UniProt Q06187); settings: read-out: residual enzyme activity
Outline: as §1

ALK = ALK (Homo sapiens, UniProt Q9UM73); settings: read-out: residual enzyme activity
Outline: as §1

ARK5/NUAK1 = ARK5/NUAK1 (Homo sapiens, UniProt O60285); settings: read-out: residual enzyme activity
Outline: as §1

CDK9/CYCLIN K = CDK9/CYCLIN K (Homo sapiens, UniProt P50750); settings: read-out: residual enzyme activity
Outline: as §1

MUSK = MUSK (Homo sapiens, UniProt O15146); settings: read-out: residual enzyme activity
Outline: as §1

BMX/ETK = BMX/ETK (Homo sapiens, UniProt P51813); settings: read-out: residual enzyme activity
BMX/ETK, sequence (P51813 whole entry): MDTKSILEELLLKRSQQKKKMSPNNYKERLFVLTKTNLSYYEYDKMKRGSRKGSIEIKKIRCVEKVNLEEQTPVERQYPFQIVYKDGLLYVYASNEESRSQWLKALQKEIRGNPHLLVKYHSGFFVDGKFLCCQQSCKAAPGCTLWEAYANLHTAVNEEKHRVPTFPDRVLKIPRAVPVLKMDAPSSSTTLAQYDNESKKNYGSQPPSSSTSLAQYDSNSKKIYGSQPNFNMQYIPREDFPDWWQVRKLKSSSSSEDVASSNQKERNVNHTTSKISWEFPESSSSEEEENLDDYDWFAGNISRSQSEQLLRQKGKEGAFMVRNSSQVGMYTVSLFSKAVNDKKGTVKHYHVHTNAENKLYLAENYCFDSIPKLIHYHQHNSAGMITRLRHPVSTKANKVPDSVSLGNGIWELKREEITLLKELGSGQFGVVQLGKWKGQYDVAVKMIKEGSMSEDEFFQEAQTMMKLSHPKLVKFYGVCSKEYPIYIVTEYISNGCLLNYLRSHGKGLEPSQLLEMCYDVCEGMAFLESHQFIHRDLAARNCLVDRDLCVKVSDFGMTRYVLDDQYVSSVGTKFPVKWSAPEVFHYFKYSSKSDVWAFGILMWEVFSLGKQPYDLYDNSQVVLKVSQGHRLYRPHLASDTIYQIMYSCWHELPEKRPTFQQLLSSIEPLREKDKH
Outline: as §1

CDK2/CYCLIN E = CDK2/CYCLIN E (Homo sapiens, UniProt P24941); settings: read-out: residual enzyme activity
Outline: as §1

SRPK2 = SRPK2 (Homo sapiens, UniProt P78362); settings: SRPK2, 1 µM; read-out: residual enzyme activity
Outline: as §1

CDK5/P35 = CDK5/P35 (Homo sapiens, UniProt Q00535); settings: read-out: residual enzyme activity
Outline: as §1

EPHAS = EPHAS (Homo sapiens, UniProt P29322); settings: read-out: residual enzyme activity
EPHAS, sequence (P29322 28-1005): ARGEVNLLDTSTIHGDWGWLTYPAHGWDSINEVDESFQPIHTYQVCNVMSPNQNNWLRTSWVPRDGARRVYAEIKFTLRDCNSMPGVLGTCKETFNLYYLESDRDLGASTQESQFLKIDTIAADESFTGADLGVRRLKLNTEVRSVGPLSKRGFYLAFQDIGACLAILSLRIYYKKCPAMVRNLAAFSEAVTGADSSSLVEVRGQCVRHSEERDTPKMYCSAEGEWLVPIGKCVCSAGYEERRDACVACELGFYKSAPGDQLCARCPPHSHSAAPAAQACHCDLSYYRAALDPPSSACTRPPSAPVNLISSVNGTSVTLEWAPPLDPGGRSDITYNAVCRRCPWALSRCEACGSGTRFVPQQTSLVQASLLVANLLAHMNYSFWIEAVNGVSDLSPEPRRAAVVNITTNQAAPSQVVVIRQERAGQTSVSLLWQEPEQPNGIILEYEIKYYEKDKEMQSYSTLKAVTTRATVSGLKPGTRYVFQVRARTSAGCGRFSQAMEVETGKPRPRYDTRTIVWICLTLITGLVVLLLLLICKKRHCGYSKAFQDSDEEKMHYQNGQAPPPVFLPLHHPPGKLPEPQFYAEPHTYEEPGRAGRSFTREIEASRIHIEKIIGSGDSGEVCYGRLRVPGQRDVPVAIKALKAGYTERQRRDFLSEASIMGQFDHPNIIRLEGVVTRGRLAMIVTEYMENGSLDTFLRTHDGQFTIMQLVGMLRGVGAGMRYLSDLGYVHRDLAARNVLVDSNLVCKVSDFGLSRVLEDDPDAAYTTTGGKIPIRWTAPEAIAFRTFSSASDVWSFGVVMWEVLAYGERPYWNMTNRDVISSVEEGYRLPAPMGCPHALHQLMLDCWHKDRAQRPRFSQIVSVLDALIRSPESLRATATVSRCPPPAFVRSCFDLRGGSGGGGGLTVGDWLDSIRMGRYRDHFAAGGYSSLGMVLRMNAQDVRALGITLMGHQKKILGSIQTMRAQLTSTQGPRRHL
Outline: as §1

MNK1 = MNK1 (Homo sapiens, UniProt Q9BUB5); settings: MNK1, 1 µM; read-out: residual enzyme activity
MNK1, sequence (Q9BUB5 whole entry, species assumed): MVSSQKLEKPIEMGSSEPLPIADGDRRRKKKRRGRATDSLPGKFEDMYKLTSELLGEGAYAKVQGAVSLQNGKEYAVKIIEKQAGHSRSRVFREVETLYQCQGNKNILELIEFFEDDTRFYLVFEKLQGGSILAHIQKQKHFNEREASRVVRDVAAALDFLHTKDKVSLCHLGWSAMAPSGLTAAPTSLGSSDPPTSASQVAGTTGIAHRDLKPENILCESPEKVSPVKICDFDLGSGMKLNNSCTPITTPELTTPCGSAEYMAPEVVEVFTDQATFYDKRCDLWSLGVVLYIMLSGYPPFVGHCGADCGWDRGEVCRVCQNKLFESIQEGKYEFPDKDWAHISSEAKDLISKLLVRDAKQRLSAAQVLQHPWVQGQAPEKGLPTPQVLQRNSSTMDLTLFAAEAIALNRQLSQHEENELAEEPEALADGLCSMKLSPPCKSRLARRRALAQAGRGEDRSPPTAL
Outline: as §1

BLK = BLK (Homo sapiens, UniProt P51451); settings: read-out: residual enzyme activity
Outline: as §1

PLK2 = PLK2 (Homo sapiens, UniProt Q9NYY3); settings: PLK2, 1 µM; read-out: residual enzyme activity
Outline: as §1

PLK3 = PLK3 (Homo sapiens, UniProt Q9H4B4); settings: PLK3, 1 µM; read-out: residual enzyme activity
Outline: as §1

PDGFRA = PDGFRA (Homo sapiens, UniProt P16234); settings: read-out: residual enzyme activity
Outline: as §1

MASTL = MASTL (Homo sapiens, UniProt Q96GX5); settings: read-out: residual enzyme activity
Outline: as §1

BRAF = BRAF (Homo sapiens, UniProt P15056); settings: read-out: residual enzyme activity
BRAF, sequence (P15056 whole entry, species assumed): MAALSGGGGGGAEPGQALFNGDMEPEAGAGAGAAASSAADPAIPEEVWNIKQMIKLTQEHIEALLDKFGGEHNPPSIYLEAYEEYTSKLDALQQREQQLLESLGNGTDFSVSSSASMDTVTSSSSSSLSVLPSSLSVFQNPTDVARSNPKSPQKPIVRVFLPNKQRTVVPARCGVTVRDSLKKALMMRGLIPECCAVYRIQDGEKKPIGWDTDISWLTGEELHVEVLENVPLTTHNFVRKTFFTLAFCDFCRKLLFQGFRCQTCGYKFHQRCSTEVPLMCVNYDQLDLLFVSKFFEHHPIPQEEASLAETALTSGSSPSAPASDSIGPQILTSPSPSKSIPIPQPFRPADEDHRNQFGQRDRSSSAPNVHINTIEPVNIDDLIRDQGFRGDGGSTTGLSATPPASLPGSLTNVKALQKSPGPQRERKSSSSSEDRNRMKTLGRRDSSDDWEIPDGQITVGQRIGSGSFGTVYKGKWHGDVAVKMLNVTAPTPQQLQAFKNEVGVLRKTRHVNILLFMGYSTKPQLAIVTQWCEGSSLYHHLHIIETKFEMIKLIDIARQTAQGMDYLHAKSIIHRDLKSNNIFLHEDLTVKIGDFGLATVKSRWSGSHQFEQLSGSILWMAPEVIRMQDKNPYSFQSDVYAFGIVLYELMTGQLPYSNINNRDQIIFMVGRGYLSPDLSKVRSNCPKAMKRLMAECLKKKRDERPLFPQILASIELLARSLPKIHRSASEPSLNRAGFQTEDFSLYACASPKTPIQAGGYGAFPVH
Outline: as §1

ASK1/MAP3K5 = ASK1/MAP3K5 (Homo sapiens, UniProt Q99683); settings: ASK1/MAP3K5, 1 µM; read-out: residual enzyme activity
Outline: as §1

KHS/MAP4K5 = KHS/MAP4K5 (Homo sapiens, UniProt Q9Y4K4); settings: KHS/MAP4K5, 1 µM; read-out: residual enzyme activity
Outline: as §1

AXL = AXL (Homo sapiens, UniProt P30530); settings: read-out: residual enzyme activity
Outline: as §1

CDK17/CYCLIN Y (PCTK2) = CDK17/CYCLIN Y (PCTK2) (Homo sapiens, UniProt Q00537); settings: read-out: residual enzyme activity
CDK17/CYCLIN Y (PCTK2), sequence (Q00537 whole entry, species assumed): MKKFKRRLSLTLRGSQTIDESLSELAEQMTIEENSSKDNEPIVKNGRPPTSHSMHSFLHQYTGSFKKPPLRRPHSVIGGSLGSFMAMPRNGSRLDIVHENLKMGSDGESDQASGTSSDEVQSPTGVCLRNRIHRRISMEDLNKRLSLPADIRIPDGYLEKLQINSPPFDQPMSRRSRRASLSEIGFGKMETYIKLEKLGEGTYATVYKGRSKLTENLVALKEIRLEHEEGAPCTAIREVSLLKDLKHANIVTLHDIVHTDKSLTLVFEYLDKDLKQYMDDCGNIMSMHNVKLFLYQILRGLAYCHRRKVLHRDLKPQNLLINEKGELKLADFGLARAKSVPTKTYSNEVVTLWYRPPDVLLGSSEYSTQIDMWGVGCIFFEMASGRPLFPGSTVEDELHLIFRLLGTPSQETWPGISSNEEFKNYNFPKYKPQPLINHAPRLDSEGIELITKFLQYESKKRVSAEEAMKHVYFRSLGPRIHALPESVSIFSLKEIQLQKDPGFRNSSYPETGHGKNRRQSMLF
CDK17/CYCLIN Y (PCTK2), sequence (Q8ND76 whole entry partner, species assumed): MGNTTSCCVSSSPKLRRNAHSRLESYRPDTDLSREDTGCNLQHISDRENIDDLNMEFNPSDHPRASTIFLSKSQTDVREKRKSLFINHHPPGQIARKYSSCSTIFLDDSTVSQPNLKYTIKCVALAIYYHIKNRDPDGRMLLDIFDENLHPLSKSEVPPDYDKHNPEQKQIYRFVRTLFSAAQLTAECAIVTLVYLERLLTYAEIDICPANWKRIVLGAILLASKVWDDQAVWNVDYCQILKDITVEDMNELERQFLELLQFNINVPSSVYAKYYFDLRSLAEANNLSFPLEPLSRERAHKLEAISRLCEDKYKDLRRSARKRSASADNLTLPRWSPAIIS
Outline: as §1

FYN = FYN (Homo sapiens, UniProt P06241); settings: read-out: residual enzyme activity
Outline: as §1

MST2/STK3 = MST2/STK3 (Homo sapiens, UniProt Q13188); settings: MST2/STK3, 1 µM; read-out: residual enzyme activity
MST2/STK3, sequence (Q13188 whole entry): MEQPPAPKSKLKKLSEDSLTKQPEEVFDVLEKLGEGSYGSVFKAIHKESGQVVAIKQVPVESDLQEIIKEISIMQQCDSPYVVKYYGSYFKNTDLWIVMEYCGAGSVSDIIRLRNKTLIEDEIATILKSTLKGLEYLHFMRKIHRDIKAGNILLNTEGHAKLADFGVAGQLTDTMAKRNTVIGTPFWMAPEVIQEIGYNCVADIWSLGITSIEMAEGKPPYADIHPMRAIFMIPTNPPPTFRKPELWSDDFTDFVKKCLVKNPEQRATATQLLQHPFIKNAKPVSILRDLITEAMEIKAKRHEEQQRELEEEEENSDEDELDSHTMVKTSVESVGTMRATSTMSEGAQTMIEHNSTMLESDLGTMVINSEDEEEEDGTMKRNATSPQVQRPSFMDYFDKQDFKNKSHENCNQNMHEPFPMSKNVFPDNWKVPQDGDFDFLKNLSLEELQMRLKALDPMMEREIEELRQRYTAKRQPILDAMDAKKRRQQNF
Outline: as §1

MLK3/MAP3K11 = MLK3/MAP3K11 (Homo sapiens, UniProt Q16584); settings: MLK3/MAP3K11, 1 µM; read-out: residual enzyme activity
Outline: as §1

ERK2/MAPK1 = ERK2/MAPK1 (Homo sapiens, UniProt P28482); settings: ERK2/MAPK1, 1 µM; read-out: residual enzyme activity
ERK2/MAPK1, sequence (P28482 whole entry): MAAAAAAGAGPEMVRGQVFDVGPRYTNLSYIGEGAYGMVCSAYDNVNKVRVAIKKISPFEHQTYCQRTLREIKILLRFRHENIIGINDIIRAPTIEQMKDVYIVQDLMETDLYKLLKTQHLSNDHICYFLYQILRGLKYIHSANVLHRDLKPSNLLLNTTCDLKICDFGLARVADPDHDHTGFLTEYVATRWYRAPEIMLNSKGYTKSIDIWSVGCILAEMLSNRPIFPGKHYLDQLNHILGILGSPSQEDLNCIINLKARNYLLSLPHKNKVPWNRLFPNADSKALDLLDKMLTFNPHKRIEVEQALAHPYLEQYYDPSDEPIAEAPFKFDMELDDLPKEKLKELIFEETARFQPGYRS
Outline: as §1

PKCIOTA = PKCIOTA (Homo sapiens, UniProt P41743); settings: read-out: residual enzyme activity
Outline: as §1

TNIK = TNIK (Homo sapiens, UniProt Q9UKE5); settings: read-out: residual enzyme activity
Outline: as §1

MLCK/MYLK = MLCK/MYLK (Homo sapiens, UniProt Q15746); settings: read-out: residual enzyme activity
Outline: as §1

VRK1 = VRK1 (Homo sapiens, UniProt Q99986); settings: VRK1, 1 µM; read-out: residual enzyme activity
VRK1, sequence (Q99986 whole entry, species assumed): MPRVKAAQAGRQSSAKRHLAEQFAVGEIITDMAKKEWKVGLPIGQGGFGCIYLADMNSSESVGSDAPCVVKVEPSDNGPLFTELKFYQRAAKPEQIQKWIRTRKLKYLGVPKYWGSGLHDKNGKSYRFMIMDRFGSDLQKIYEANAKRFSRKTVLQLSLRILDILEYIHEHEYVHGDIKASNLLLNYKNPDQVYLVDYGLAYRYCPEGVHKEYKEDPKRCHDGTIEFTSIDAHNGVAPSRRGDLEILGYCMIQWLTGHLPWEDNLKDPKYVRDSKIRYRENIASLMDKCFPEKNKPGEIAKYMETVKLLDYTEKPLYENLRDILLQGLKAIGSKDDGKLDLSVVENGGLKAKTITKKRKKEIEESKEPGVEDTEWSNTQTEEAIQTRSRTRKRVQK
Outline: as §1

CDK14/CYCLIN Y (PFTK1) = CDK14/CYCLIN Y (PFTK1) (Homo sapiens, UniProt O94921); settings: read-out: residual enzyme activity
Outline: as §1

**Q.** Which results are given for Cc1ccc(Nc2ncc3c(n2)C2(CC2)C(=O)N(c2cc(NC(=O)c4cccc(C(F)(F)F)c4)ccc2C)C3)cn1 [Compound 51, N-(4-methyl-3-(2'-((6-methylpyridin-3-yl)amino)-7'-oxo-5'H-spiro[cyclopropane-1,8'-pyrido[4,3-d]pyrimidine]-6'(7'H)-yl)phenyl)-3-(trifluoromethyl)benzamide]?
**A.** remaining activity at 1 µM (DDR2): ≤ 40%; remaining activity at 1 µM (PKCB2): > 40%; remaining activity at 1 µM (KSR2): > 40%; remaining activity at 1 µM (PKCA): > 40%; remaining activity at 1 µM (AURORA B): > 40%; remaining activity at 1 µM (BTK): ≤ 40%; remaining activity at 1 µM (ALK): > 40%; remaining activity at 1 µM (ARK5/NUAK1; ARKS/NUAKl, 1 µM): > 40%; remaining activity at 1 µM (CDK9/CYCLIN K): > 40%; remaining activity at 1 µM (MUSK): ≤ 40%; remaining activity at 1 µM (BMX/ETK): ≤ 40%; remaining activity at 1 µM (CDK2/CYCLIN E): > 40%; remaining activity at 1 µM (SRPK2): > 40%; remaining activity at 1 µM (CDK5/P35; CDK5/p35, 1 µM): > 40%; remaining activity at 1 µM (EPHAS; EPHA8, 1 µM): ≤ 40%; remaining activity at 1 µM (MNK1): > 40%; remaining activity at 1 µM (BLK): ≤ 40%; remaining activity at 1 µM (PLK2): > 40%; remaining activity at 1 µM (PLK3): > 40%; remaining activity at 1 µM (PDGFRA): ≤ 40%; remaining activity at 1 µM (MASTL): > 40%; remaining activity at 1 µM (BRAF): ≤ 40%; remaining activity at 1 µM (ASK1/MAP3K5): > 40%; remaining activity at 1 µM (KHS/MAP4K5): ≤ 40%; remaining activity at 1 µM (AXL): > 40%; remaining activity at 1 µM (CDK17/CYCLIN Y (PCTK2)): > 40%; remaining activity at 1 µM (FYN): ≤ 40%; remaining activity at 1 µM (MST2/STK3): > 40%; remaining activity at 1 µM (MLK3/MAP3K11): ≤ 40%; remaining activity at 1 µM (ERK2/MAPK1): > 40%; remaining activity at 1 µM (PKCIOTA): > 40%; remaining activity at 1 µM (TNIK): ≤ 40%; remaining activity at 1 µM (MLCK/MYLK): > 40%; remaining activity at 1 µM (VRK1): > 40%; remaining activity at 1 µM (CDK14/CYCLIN Y (PFTK1)): > 40%

**Q.** Which remaining activity at 1 µM (DDR2) does the source give for Cc1cn(-c2cc(C(=O)Nc3ccc(C)c(N4Cc5cnc(NC6CC6)nc5C5(CC5)C4=O)c3)cc(C(F)(F)F)c2)cn1 [Compound 8, N-(3-(2'-(cyclopropylamino)-7'-oxo-5'H-spiro[cyclopropane-1,8'-pyrido[4,3-d]pyrimidine]-6'(7'H)-yl)-4-methylphenyl)-3-(4-methyl-1H-imidazol-1-yl)-5-(trifluoromethyl)benzamide] here?
**A.** Its remaining activity at 1 µM is no more than 40%.

**Q.** What about the remaining activity at 1 µM (PKCB2) of the same molecule?
**A.** The remaining activity at 1 µM was greater than 40%.

**Q.** And the remaining activity at 1 µM (KSR2)?
**A.** Its remaining activity at 1 µM is greater than 40%.

**Q.** What about the remaining activity at 1 µM (PKCA) of the same molecule?
**A.** Its remaining activity at 1 µM is greater than 40%.

**Q.** And the remaining activity at 1 µM (AURORA B)?
**A.** The remaining activity at 1 µM was greater than 40%.

**Q.** What about the remaining activity at 1 µM (BTK) of the same molecule?
**A.** The remaining activity at 1 µM was no more than 40%.

**Q.** What about the remaining activity at 1 µM (ALK) of the same molecule?
**A.** Its remaining activity at 1 µM is greater than 40%.

**Q.** What about the remaining activity at 1 µM (ARK5/NUAK1; ARK5/NUAK1, 1 µM) of the same molecule?
**A.** The remaining activity at 1 µM was greater than 40%.

**Q.** What about the remaining activity at 1 µM (CDK9/CYCLIN K) of the same molecule?
**A.** Its remaining activity at 1 µM is greater than 40%.

**Q.** And the remaining activity at 1 µM (MUSK)?
**A.** Its remaining activity at 1 µM is no more than 40%.

**Q.** What about the remaining activity at 1 µM (BMX/ETK) of the same molecule?
**A.** The remaining activity at 1 µM was no more than 40%.

**Q.** And the remaining activity at 1 µM (CDK2/CYCLIN E)?
**A.** The remaining activity at 1 µM was greater than 40%.

**Q.** What about the remaining activity at 1 µM (SRPK2) of the same molecule?
**A.** The remaining activity at 1 µM was greater than 40%.

**Q.** And the remaining activity at 1 µM (CDK5/P35; CDK5/P35, 1 µM)?
**A.** Its remaining activity at 1 µM is greater than 40%.

**Q.** And the remaining activity at 1 µM (EPHAS; EPHAS (row 110), 1 µM)?
**A.** The remaining activity at 1 µM was no more than 40%.

**Q.** And the remaining activity at 1 µM (MNK1)?
**A.** The remaining activity at 1 µM was greater than 40%.

**Q.** What about the remaining activity at 1 µM (BLK) of the same molecule?
**A.** The remaining activity at 1 µM was no more than 40%.

**Q.** What about the remaining activity at 1 µM (PLK2) of the same molecule?
**A.** Its remaining activity at 1 µM is greater than 40%.

**Q.** And the remaining activity at 1 µM (PLK3)?
**A.** Its remaining activity at 1 µM is greater than 40%.

**Q.** And the remaining activity at 1 µM (PDGFRA)?
**A.** The remaining activity at 1 µM was no more than 40%.

**Q.** What about the remaining activity at 1 µM (MASTL) of the same molecule?
**A.** Its remaining activity at 1 µM is greater than 40%.

**Q.** And the remaining activity at 1 µM (BRAF)?
**A.** Its remaining activity at 1 µM is no more than 40%.

**Q.** What about the remaining activity at 1 µM (ASK1/MAP3K5) of the same molecule?
**A.** The remaining activity at 1 µM was greater than 40%.

**Q.** And the remaining activity at 1 µM (KHS/MAP4K5)?
**A.** Its remaining activity at 1 µM is no more than 40%.

**Q.** What about the remaining activity at 1 µM (AXL) of the same molecule?
**A.** Its remaining activity at 1 µM is greater than 40%.

**Q.** What about the remaining activity at 1 µM (CDK17/CYCLIN Y (PCTK2)) of the same molecule?
**A.** Its remaining activity at 1 µM is greater than 40%.

**Q.** And the remaining activity at 1 µM (FYN)?
**A.** Its remaining activity at 1 µM is no more than 40%.

**Q.** And the remaining activity at 1 µM (MST2/STK3)?
**A.** Its remaining activity at 1 µM is greater than 40%.

**Q.** What about the remaining activity at 1 µM (MLK3/MAP3K11) of the same molecule?
**A.** Its remaining activity at 1 µM is no more than 40%.

**Q.** What about the remaining activity at 1 µM (ERK2/MAPK1) of the same molecule?
**A.** Its remaining activity at 1 µM is greater than 40%.

**Q.** And the remaining activity at 1 µM (PKCIOTA)?
**A.** The remaining activity at 1 µM was greater than 40%.

**Q.** And the remaining activity at 1 µM (TNIK)?
**A.** The remaining activity at 1 µM was no more than 40%.

**Q.** What about the remaining activity at 1 µM (MLCK/MYLK) of the same molecule?
**A.** The remaining activity at 1 µM was greater than 40%.

**Q.** And the remaining activity at 1 µM (VRK1)?
**A.** Its remaining activity at 1 µM is greater than 40%.

**Q.** What about the remaining activity at 1 µM (CDK14/CYCLIN Y (PFTK1)) of the same molecule?
**A.** The remaining activity at 1 µM was greater than 40%.
